Results: US12247045B2, “MAP4K4 inhibitors” (Imperial College Innovations Limited, priority 2018, dated 2025)
Where two headings read alike, the source gives them in different places.

Experiments:
Format in all cases: biochemical
[1] = target: T1, human MAP4K4 kinase domain (Homo sapiens, UniProt O95819); assay: MAP4K4 kinase activity, CisBio HTRF Transcreener ADP assay
T1 construct: 0.5 nM human MAP4K4 kinase domain (Invitrogen); purchased Invitrogen
How it was run: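 HTRF Transcreener ADP read-out (665/620 nm ratio) of ADP formed by 0.5 nM kinase domain with 1 μM biotin-myelin basic protein substrate and ATP at Km (10 μM), 1% DMSO, 2 h reaction. IC50 values binned as A ≤100 nM, B 100 nM–1 μM, C >1 μM.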

[2] = target: T2, GLK/MAP4K3 (Homo sapiens, UniProt Q8IVH8); assay: Kinase selectivity panel, GLK/MAP4K3
T2 sequence (Q8IVH8 1-894): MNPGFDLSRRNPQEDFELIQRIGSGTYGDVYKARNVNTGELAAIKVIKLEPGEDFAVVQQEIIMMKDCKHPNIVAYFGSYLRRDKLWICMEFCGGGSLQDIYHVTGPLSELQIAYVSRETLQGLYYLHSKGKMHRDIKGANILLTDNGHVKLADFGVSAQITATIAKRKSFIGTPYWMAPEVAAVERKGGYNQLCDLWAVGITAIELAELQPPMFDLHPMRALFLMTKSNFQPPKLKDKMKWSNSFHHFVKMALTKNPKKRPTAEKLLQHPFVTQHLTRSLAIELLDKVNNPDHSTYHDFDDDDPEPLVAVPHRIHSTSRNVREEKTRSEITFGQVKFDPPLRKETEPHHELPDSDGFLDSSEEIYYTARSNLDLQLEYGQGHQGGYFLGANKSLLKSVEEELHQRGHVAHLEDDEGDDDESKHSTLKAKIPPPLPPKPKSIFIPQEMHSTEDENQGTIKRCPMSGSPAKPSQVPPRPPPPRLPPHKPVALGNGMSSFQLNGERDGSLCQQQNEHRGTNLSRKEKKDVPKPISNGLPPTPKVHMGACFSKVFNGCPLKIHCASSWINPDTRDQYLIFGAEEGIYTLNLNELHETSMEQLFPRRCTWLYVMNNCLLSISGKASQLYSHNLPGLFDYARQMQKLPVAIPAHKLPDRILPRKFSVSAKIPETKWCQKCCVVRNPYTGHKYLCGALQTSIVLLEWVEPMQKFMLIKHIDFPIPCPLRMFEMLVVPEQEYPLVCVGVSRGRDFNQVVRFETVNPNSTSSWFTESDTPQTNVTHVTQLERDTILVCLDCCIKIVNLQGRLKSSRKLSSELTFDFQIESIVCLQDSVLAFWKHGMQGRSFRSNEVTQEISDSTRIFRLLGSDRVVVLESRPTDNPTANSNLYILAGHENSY
From the text: (§1) The data in Table 42 also provides the fold selectivity of the two compounds in favour of MAP4K4 over the tested kinase. The fold selectivity is indicated in parenthesis.

[3] = target: Aurora B (Homo sapiens, UniProt Q96GD4); assay: Kinase selectivity panel, Aurora B; settings: in favour of MAP4K4
Aurora B, sequence (Q96GD4 whole entry): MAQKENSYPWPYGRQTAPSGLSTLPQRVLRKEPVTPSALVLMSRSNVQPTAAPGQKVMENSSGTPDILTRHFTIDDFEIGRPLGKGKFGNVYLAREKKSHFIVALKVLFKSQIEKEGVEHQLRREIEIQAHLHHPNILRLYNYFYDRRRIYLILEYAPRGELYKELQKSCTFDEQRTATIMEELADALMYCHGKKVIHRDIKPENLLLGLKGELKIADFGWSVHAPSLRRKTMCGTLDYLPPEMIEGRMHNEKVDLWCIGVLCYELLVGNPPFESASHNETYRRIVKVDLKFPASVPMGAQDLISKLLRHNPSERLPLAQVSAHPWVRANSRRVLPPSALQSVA
From the text: as §1

[4] = target: MLK3/MAP3K11 (Homo sapiens, UniProt Q16584); assay: Kinase selectivity panel, MLK3/MAP3K11
MLK3/MAP3K11, sequence (Q16584 whole entry): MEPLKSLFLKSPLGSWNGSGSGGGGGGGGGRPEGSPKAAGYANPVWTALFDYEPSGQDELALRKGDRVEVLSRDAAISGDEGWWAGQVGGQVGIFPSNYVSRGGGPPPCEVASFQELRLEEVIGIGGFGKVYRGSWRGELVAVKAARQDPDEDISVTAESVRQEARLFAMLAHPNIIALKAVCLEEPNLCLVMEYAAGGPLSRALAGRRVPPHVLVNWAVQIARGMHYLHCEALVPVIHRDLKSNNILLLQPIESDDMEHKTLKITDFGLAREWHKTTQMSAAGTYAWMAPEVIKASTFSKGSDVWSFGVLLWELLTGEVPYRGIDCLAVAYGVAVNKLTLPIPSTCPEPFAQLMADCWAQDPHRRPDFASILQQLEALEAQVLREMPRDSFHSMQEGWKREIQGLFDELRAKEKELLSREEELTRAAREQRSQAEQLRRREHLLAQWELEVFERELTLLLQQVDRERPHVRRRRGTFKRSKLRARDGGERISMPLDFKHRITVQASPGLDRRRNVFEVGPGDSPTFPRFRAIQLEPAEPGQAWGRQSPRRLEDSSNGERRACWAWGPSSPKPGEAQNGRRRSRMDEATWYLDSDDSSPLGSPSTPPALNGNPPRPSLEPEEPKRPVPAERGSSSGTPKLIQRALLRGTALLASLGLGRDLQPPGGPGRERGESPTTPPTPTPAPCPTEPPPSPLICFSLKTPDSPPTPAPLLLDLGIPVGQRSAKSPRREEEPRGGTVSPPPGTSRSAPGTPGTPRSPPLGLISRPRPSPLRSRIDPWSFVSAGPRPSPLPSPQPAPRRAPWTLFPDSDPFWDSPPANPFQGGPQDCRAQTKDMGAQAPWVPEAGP
From the text: as §1

T1 sequence (O95819 25-289 limits assumed): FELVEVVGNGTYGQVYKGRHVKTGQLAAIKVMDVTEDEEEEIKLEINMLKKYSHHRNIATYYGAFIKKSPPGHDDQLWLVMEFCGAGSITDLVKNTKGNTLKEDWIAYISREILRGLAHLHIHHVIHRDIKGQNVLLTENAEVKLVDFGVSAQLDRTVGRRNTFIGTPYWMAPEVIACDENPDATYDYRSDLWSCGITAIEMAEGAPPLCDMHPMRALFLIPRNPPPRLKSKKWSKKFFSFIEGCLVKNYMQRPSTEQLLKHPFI

CC(C)(O)CCOc1ccc(-c2cn(-c3cccnc3)c3nc[nH]c(=O)c23)cc1 [Ex-78, 5-(4-(3-hydroxy-3-methylbutoxy)phenyl)-7-(pyridin-3-yl)-3,7-dihydro-4H-pyrrolo[2,3-d]pyrimidin-4-one]
IC50 ([1]; IC50 category, ATP at Km (10 μM), 0.5 nM kinase domain, 2 h, read-out: MAP4K4): ≤ 100 nM | IC50 ([1]; read-out: pIC50 MAP4K4 (converted)): 31.6 nM | fold selectivity MAP4K4 over GLK/MAP4K3 ([2]; in favour of MAP4K4): (50) fold | IC50 ([2]; read-out: pIC50 GLK/MAP4K3 (converted)): 1580 nM | fold selectivity MAP4K4 over Aurora B [3]: (1000) fold | fold selectivity MAP4K4 over MLK3/MAP3K11 ([4]; in favour of MAP4K4): (8) fold | IC50 ([4]; read-out: pIC50 MLK3/MAP3K11 (converted)): 251 nM
